The results in this text go back to patent publication US12091409B2, “Ether linked triazoles as NRF2 activators” (ASTEX THERAPEUTICS LIMITED, priority 2016, dated 2024).

For orientation: EC50 means the concentration that produces a half-maximal response.

For the first test, the system named is NQO1 specific enzyme activity in BEAS-2B cells (marker for NRF2 activation). Nature of the test: BEAS-2B NQO1 MTT Assay. It is filed as cell-based. The following applies: Homo sapiens, BEAS-2B, 48 h, NQO1 specific activity induction, 48 hours with compound. The text has this: NAD(P)H:quinone oxidoreductase 1 (NQO1), also called DT diaphorase, is a homodimeric FAD-containing enzyme that catalyzes obligatory NAD(P)H-dependent two-electron reductions of quinones and protects cells against the toxic and neoplastic effects of free radicals and reactive oxygen species arising from one-electron reductions. The transcription of NQO1 is finely regulated by NRF2, and thus NQO1 activity is a good marker for NRF2 activation. On day one, frozen BEAS-2B cells (ATCC) were thawed in a water bath, counted, and re-suspended at a concentration of 250,000 cells/mL. Fifty microliters of cells were plated in 384 well black clear-bottomed plates. Plates were incubated at 37° C., 5% CO2 overnight. On day two, plates were centrifuged and 50 nL of compound or controls were added to the cells. Plates were then incubated at 37° C., 5% CO2 for 48 hours. On day four, medium was aspirated from the plate and crude cell lysates were made by adding 13 uL of 1× Cell Signaling Technologies lysis buffer with 1 Complete, Mini, EDTA-free Protease Inhibitor Tablet (Roche) for each 10 mL of lysis buffer. After lysis plates were incubated for 20 minutes at room temperature. Two microliters of lysate were removed for use in Cell Titer Glo assay (Promega) and MTT cocktail was prepared (Prochaska et. al. 1998) for measurement of NQO1 activity. Fifty microliters of MTT cocktail was added to each well, plate was centrifuged, and analyzed on an Envision plate reader (Perkin Elmer) using Absorbance 570 nm label for 30 minutes. Product formation was measured kinetically and the pEC50 of NQO1 specific activity induction was calculated by plotting the change in absorbance (Delta OD/min) versus the log of compound concentration followed by 3-parameter fitting.
pEC50 is the negative log of the EC50.
EC50s<1 nM (+++++), EC50s 1 nM-10 nM (++++), EC50s 10 nM-100 nM (+++), EC50s 100 nM-1 uM (++), EC50s 1 uM-10 uM (+); EC50s>10 uM (−), or were not determined (ND).
For the molecule `Cc1ccc([C@H](OCc2cn(Cc3ccc(Cn4cc(CO[C@@H](c5ccc(C)c(CN6C[C@@H](C)Oc7ccccc7S6(=O)=O)c5)C(C)(C)C(=O)O)nn4)cc3)nn2)C(C)(C)C(=O)O)cc1CN1C[C@@H](C)Oc2ccccc2S1(=O)=O` (relative stereo) [Example 46, (R,rel-(3S,3'S))-3,3′-(((1,1′-(1,4-phenylenebis(methylene))bis(1H-1,2,3-triazole-4,1-diyl))bis(methylene))bis(oxy))bis(2,2-dimethyl-3-(4-methyl-3-(((R)-4-methyl-1,1-dioxido-3,4-dihydro-2H-benzo[b][1,4,5]oxathiazepin-2-yl)methyl)phenyl)propanoic acid)], the EC50 was in the range of 10 to 100 nM. Same read-out and setting: the same measure for `Cc1ccc([C@@H](OCc2cn(Cc3ccc(Cn4cc(CO[C@H](c5ccc(C)c(CN6C[C@@H](C)Oc7ccccc7S6(=O)=O)c5)C(C)(C)C(=O)O)nn4)cc3)nn2)C(C)(C)C(=O)O)cc1CN1C[C@@H](C)Oc2ccccc2S1(=O)=O` (relative stereo) [Example 49, (R,rel-(3R,3′R))-3,3′-(((1,1′-(1,4-phenylenebis(methylene))bis(1H-1,2,3-triazole-4,1-diyl))bis(methylene))bis(oxy))bis(2,2-dimethyl-3-(4-methyl-3-(((R)-4-methyl-1,1-dioxido-3,4-dihydro-2H-benzo[b][1,4,5]oxathiazepin-2-yl)methyl)phenyl)propanoic acid)]: 100 to 1000 nM. Take `Cc1ccc([C@H](OCc2cn(CCOCCn3cc(CO[C@@H](c4ccc(C)c(CN5C[C@@H](C)Oc6ccccc6S5(=O)=O)c4)C(C)(C)C(=O)O)nn3)nn2)C(C)(C)C(=O)O)cc1CN1C[C@@H](C)Oc2ccccc2S1(=O)=O` (relative stereo) [Example 50, (R,rel-3S, rel-3′S)-3,3′-(((1,1′-(oxybis(ethane-2,1-diyl))bis(1H-1,2,3-triazole-4,1-diyl))bis(methylene))bis(oxy))bis(2,2-dimethyl-3-(4-methyl-3-(((R)-4-methyl-1,1-dioxido-3,4-dihydro-2H-benzo[b][1,4,5]oxathiazepin-2-yl)methyl)phenyl)propanoic acid)]: the EC50 fell in the range of 10 to 100 nM. Take `Cc1ccc([C@@H](OCc2cn(CCOCCn3cc(CO[C@H](c4ccc(C)c(CN5C[C@@H](C)Oc6ccccc6S5(=O)=O)c4)C(C)(C)C(=O)O)nn3)nn2)C(C)(C)C(=O)O)cc1CN1C[C@@H](C)Oc2ccccc2S1(=O)=O` (relative stereo) [Example 51, (R,rel-3R, rel-3′R)-3,3′-(((1,1′-(oxybis(ethane-2,1-diyl))bis(1H-1,2,3-triazole-4,1-diyl))bis(methylene))bis(oxy))bis(2,2-dimethyl-3-(4-methyl-3-(((R)-4-methyl-1,1-dioxido-3,4-dihydro-2H-benzo[b][1,4,5]oxathiazepin-2-yl)methyl)phenyl)propanoic acid)]: the EC50 lay within 1000 to 10000 nM. Same read-out and setting: the figure for `Cc1ccc(C(OCc2cn(CCOCCN=[N+]=[N-])nn2)C(C)(C)C(=O)O)cc1CN1C[C@@H](C)Oc2ccccc2S1(=O)=O` (single isomer, unassigned) [Example 14] is 1 to 10 nM. Same read-out and setting: the same measure for `Cc1ccc([C@@H](OCc2cn(CCOCCN=[N+]=[N-])nn2)C(C)(C)C(=O)O)cc1CN1C[C@@H](C)Oc2ccccc2S1(=O)=O` (single isomer, unassigned) [Example 15]: 10 to 100 nM; for `Cc1ccc(C(OCc2cn(CC3CC[N+]4(CCOCC4)CC3)nn2)C(C)(C)C(=O)O)cc1CN1CC(C)Oc2ccccc2S1(=O)=O` (stereo in doubt) [Example 56, 3-((1-(3-Oxa-6-azaspiro[5.5]undecan-6-ium-9-ylmethyl)-1H-1,2,3-triazol-4-yl)methoxy)-2,2-dimethyl-3-(4-methyl-3-(((S)-4-methyl-1,1-dioxido-3,4-dihydro-2H-benzo[b][1,4,5]oxathiazepin-2-yl)methyl)phenyl)propanoate]: 1000 to 10000 nM; for `CCn1cc(CO[C@@H](c2ccc(C)c(CN3CC(C)Cc4ccncc4S3(=O)=O)c2)C(C)(C)C(=O)O)nn1` (stereo in doubt) [Example 73, (3S)-((1-ethyl-1H-1,2,3-triazol-4-yl)methoxy)-2,2-dimethyl-3-(4-methyl-3-(((R)-4-methyl-1,1-dioxido-4,5-dihydropyrido[4,3-f][1,2]thiazepin-2(3H)-yl)methyl)phenyl)propanoic acid]: 10 to 100 nM. As for `Cc1ccc(C(OCc2cn(Cc3cccc(Br)c3)nn2)C(C)(C)C(=O)O)cc1CN1C[C@@H](C)Oc2ccccc2S1(=O)=O` (stereo partly drawn) [Example 1, 3-((1-(3-Bromobenzyl)-1H-1,2,3-triazol-4-yl)methoxy)-2,2-dimethyl-3-(4-methyl-3-(((R)-4-methyl-1,1-dioxido-3,4-dihydro-2H-benzo[b][1,4,5]oxathiazepin-2-yl)methyl)phenyl)propanoic acid], the 50% effective concentration (EC50) is below 1 nM. The same measure, in the same setting: the figure for `C#CCOC(c1ccc(C)c(CN2C[C@@H](C)Oc3ccccc3S2(=O)=O)c1)C(C)(C)C(=O)O` (stereo partly drawn) [Example 2, 2,2-Dimethyl-3-(4-methyl-3-(((R)-4-methyl-1,1-dioxido-3,4-dihydro-2H-benzo[b][1,4,5]oxathiazepin-2-yl)methyl)phenyl)-3-(prop-2-yn-1-yloxy)propanoic acid] is 100 to 1000 nM; for `Cc1ccc(C(OCc2cn(Cc3cccc(CN=[N+]=[N-])c3)nn2)C(C)(C)C(=O)O)cc1CN1C[C@@H](C)Oc2ccccc2S1(=O)=O` (stereo partly drawn) [Example 3, 3-((1-(3-(Azidomethyl)benzyl)-1H-1,2,3-triazol-4-yl)methoxy)-2,2-dimethyl-3-(4-methyl-3-(((R)-4-methyl-1,1-dioxido-3,4-dihydro-2H-benzo[b][1,4,5]oxathiazepin-2-yl)methyl)phenyl)propanoic acid] it is below 1 nM. Take `CCCn1cc(COC(c2ccc(C)c(CN3C[C@@H](CC)Oc4ccccc4S3(=O)=O)c2)C(C)(C)C(=O)O)nn1` (stereo partly drawn) [Example 4, 3-(3-(((R)-4-ethyl-1,1-dioxido-3,4-dihydro-2H-benzo[b][1,4,5]oxathiazepin-2-yl)methyl)-4-methylphenyl)-2,2-dimethyl-3-((1-propyl-1H-1,2,3-triazol-4-yl)methoxy)propanoic acid]: the concentration for a half-maximal effect (EC50) was below 1 nM. Take `CC[C@@H]1CN(Cc2cc([C@@H](OCc3cn(CC)nn3)C(C)(C)C(=O)O)ccc2C)S(=O)(=O)c2ccccc2O1` [Example 5, (R)-3-(3-(((R)-4-ethyl-1,1-dioxido-3,4-dihydro-2H-benzo[b][1,4,5]oxathiazepin-2-yl)methyl)-4-methylphenyl)-3-((1-ethyl-1H-1,2,3-triazol-4-yl)methoxy)-2,2-dimethylpropanoic acid]: the EC50 was below 1 nM. For `CC[C@@H]1CN(Cc2cc([C@H](OCc3cn(CC)nn3)C(C)(C)C(=O)O)ccc2C)S(=O)(=O)c2ccccc2O1` [Example 6, (S)-3-(3-(((R)-4-ethyl-1,1-dioxido-3,4-dihydro-2H-benzo[b][1,4,5]oxathiazepin-2-yl)methyl)-4-methylphenyl)-3-((1-ethyl-1H-1,2,3-triazol-4-yl)methoxy)-2,2-dimethylpropanoic acid], the EC50 was in the range of 1 to 10 nM. Take `CC[C@@H]1CN(Cc2cc(C(OCc3cn(Cc4ccccc4)nn3)C(C)(C)C(=O)O)ccc2C)S(=O)(=O)c2ccccc2O1` (stereo partly drawn) [Example 7, 3-((1-Benzyl-1H-1,2,3-triazol-4-yl)methoxy)-3-(3-(((R)-4-ethyl-1,1-dioxido-3,4-dihydro-2H-benzo[b][1,4,5]oxathiazepin-2-yl)methyl)-4-methylphenyl)-2,2-dimethylpropanoic acid]: the half-maximal effective concentration (EC50) was below 1 nM. In the case of `CCCn1cc(COC(c2ccc(C)c(CN3C[C@@H](C)Oc4ccccc4S3(=O)=O)c2)C(C)(C)C(=O)O)nn1` (stereo partly drawn) [Example 8, 2,2-Dimethyl-3-(4-methyl-3-(((R)-4-methyl-1,1-dioxido-3,4-dihydro-2H-benzo[b][1,4,5]oxathiazepin-2-yl)methyl)phenyl)-3-((1-propyl-1H-1,2,3-triazol-4-yl)methoxy)propanoic acid], the EC50 is 1 to 10 nM.

The test is the same for the next values; noted with them: NQO1 specific activity induction, 48 hours with compound.
In the case of `Cc1ccc(C(OCc2cn(CC(C)C)nn2)C(C)(C)C(=O)O)cc1CN1C[C@@H](C)Oc2ccccc2S1(=O)=O` (single isomer, unassigned) [Example 13], the EC50 was 1 to 10 nM. Regarding `Cc1ccc(C(OCc2cn(CC(C)C)nn2)C(C)(C)C(=O)O)cc1CN1C[C@@H](C)Oc2ccccc2S1(=O)=O` (single isomer, unassigned) [Example 16], the concentration for a half-maximal effect (EC50) fell in the range of 10 to 100 nM. As to `Cc1ccc(C(OCc2cn(C3COC3)nn2)C(C)(C)C(=O)O)cc1CN1C[C@@H](C)Cc2ccncc2S1(=O)=O` (single isomer, unassigned) [Example 102], the EC50 was in the range of 10 to 100 nM. Still for that read-out and setting: the same measure for `Cc1ccc(C(OCc2cn(C3COC3)nn2)C(C)(C)C(=O)O)cc1CN1C[C@@H](C)Cc2ccncc2S1(=O)=O` (single isomer, unassigned) [Example 103]: 1 to 10 nM.
